# US7771931B2, “Methods for diagnosing and treating diseases and conditions associated with protein kinase Cλ” (The General Hospital Corporation, priority 2001, dated 2010)
# What was measured:
# PKCλ = assay: Antisense morpholino injection into zebrafish embryos; format: in vivo; conditions: injected into 1-4 cell embryos
# Protocol: An antisense morpholino oligonucleotide of sequence 5′-[…]-3′ (SEQ ID NO:6) (GeneTools, LLC) was dissolved at a concentration of […] in 1× Danieau's buffer (5 mM Hepes pH 7.6, 58 mM NaCl, 0.7 mM KCl, 0.6 mM Ca (NO3)2, 0.4 mM MgSO4). One nL of this solution or 1× Danieau's buffer was injected into each 1-4 cell embryo before allowing the embryos to develop at 28.50° C.
# zebrafish embryos [1] = assay: Anterior-posterior patterning by in situ hybridization (Pax2.1, cmlc2), 18-somite zebrafish embryos; format: in vivo
# Protocol: (§1) Digoxigenin-labeled antisense RNA probes were generated by ill vitro transcription for cmlc2 (Yelon et al., supra), vmhc (Yelon et al., supra), and pax2.1 (Krauss et al., Development 113:1193-1206, 1991). In situ hybridization was carried out as described (Oxtoby et al., Nucleic Acids Res. 21:1087-1095, 1993). For whole-mount immunohistochemistry, embryos were fixed in 4% paraformaldehyde in phosphate-buffered saline (S46 and 3G8) or 80% methanol, 20% dimethyl sulfoxide (α-ZO-1), permeablized in acetone for 30 minutes at −20° C. (3G8), blocked with 5% fetal bovine serum, and incubated with the antibodies S46, 3G8 (Vize et al., Dev. Biol. 171:531-540, 1995), or α-ZO-1. An anti-mouse-horseradish peroxidase conjugate was used as secondary antibody for S46 and 3G8, and an Alexa 488-labeled anti-mouse secondary antibody was used for α-ZO-1 staining.
# C. elegans embryo = assay: Early development of the C. elegans embryo (par-2::GFP strain KK871); format: in vivo; conditions: 34 μM concentramide
# Protocol: C. eleganis strain KK871 (par-2::GFP) was maintained at 25° C. For each sample, 10-15 adult worms were soaked in 80 μL M9 medium containing 34 μM concentramide, 0.25% dimethyl sulfoxide for 30-60 minutes. Worms were then cut open with a scalpel, and embryos were mounted on 2% agarose pads with coverslips. Embryos were allowed to develop at 25° C. before being photographed live.
# yeast = assay: Rate of proliferation of yeast; format: cell-based
# zebrafish embryos [2] = assay: Retina histology of treated zebrafish embryos (hematoxylin-eosin, dapi); format: in vivo; conditions: concentramide-treated embryos
# Excerpt: (§2) Fixed embryos were dehydrated, embedded in plastic (JB4, Polysciences, Inc.), and sectioned at 2-7 μm. Retinal sections were stained with hematoxylin-eosin or dapi.
# zebrafish embryos [3] = assay: Kidney epithelium of treated zebrafish embryos (apical marker 3G8); format: in vivo; conditions: embryos exposed to concentramide
# Protocol: as §1, §2
# mammalian cells = assay: Bromodeoxyuridine incorporation in mammalian cells; format: cell-based
# zebrafish embryos [4] = assay: Fusion order of heart primordia (cmlc2 expression, 16- and 18-somite stages); format: in vivo
# Protocol: as §1
# zebrafish embryos [5] = assay: Small molecule treatment of developing zebrafish embryos, visual inspection of heart patterning
# Excerpt: Visual inspection of the transparent embryos was used to identify small molecules that affect the global patterning of the heart.
compound,measurement,setting,value
5′-CTGTCCCGCAGCGTGGGCATTATGG-3′ (all phosphorodiamidate morpholino (PMO)) [antisense morpholino oligomers],phenotype of injected embryos compared with has mutation,PKCλ,phenocopy the mutation entirely
CCCCCc1ccc(-c2ccc(/C=C/C(N)=O)cc2)nc1 [concentramide],distance between Pax2.1-expressing cells in the eyes and at the midbrain/hindbrain boundary,zebrafish embryos [1]; 18-somite embryos,reduced
same,distance between the anterior edge of the cmlc2-expressing field and the anterior extreme of the embryo,"zebrafish embryos [1]; 18-somite stage, n=12, wild-type 3.1+/−0.2",2.2+/−0.3 arbitrary units
same,Par2 localization,C. elegans embryo,retain proper localization of Par2 to the posterior pole
same,asymmetry of first cell division,C. elegans embryo,normally asymmetric first cell division
same,completion of development,C. elegans embryo,fail to complete development
same,cytokinesis,C. elegans embryo,cytolinetic defects
same,effect on rate of proliferation of yeast,yeast,no effect
same,"defects in cell polarity, RPE continuity, or lamination of the retina",zebrafish embryos [2],do not exhibit defects
same,irregular epithelial cell shapes and gaps between cells in the kidney,zebrafish embryos [3],did not observe these defects
same,effect on bromodeoxyuridine incorporation,mammalian cells,no effect
same,fusion of posterior ends of the heart field,zebrafish embryos [4],failure to merge the posterior ends
same,phenotype at 6 μM compared with 6 nM,zebrafish embryos [5]; 6 μM versus 6 nM,virtually the same phenotype
same,brain development,zebrafish embryos [5]; concentramide-treated embryos,develop abnormally
same,heart phenotype of exposed embryos,zebrafish embryos [5]; embryos exposed to concentramide,compact hearts that do not sustain a circulation
same,cell death,zebrafish embryos [5]; general cytotoxicity,no increase in cell death is apparent
same,development relative to untreated siblings,zebrafish embryos [5]; general cytotoxicity,not delayed
same,stage before which concentramide must be present to induce the concentric chamber morphology,"zebrafish embryos [5]; more precise staging, approximately 15 hpf",< 14 somite stage
same,potency on specific molecular target versus other proteins affecting visible developmental processes,zebrafish embryos [5]; same phenotype at 6 μM and 6 nM,"at least 1,000 times"
same,heart morphology at 24 hpf,zebrafish embryos [5]; treated after 17 hpf,wild-type heart morphology
same,heart morphology at 24 hpf,zebrafish embryos [5]; treated at any time prior to 14 hpf,concentric chamber morphology
same,brain and heart phenotype with timed treatment,"zebrafish embryos [5]; treated between 9 and 14 hpf, concentric heart chamber phenotype preserved",eliminates this brain defect
